Experimental data published in US8476265B2, “Compounds-801” (AstraZeneca AB, priority 2010, dated 2013).

Tests used:
Adrenergic β2 = target: T1, Adrenergic β2 (Homo sapiens, UniProt P07550); assay: Adrenergic β2 mediated cAMP production in H292 cells (AlphaScreen), concentration response; type: cell-based; conditions: for EC50: 60 min, 300 μM rolipram, read-out: β2 pEC50 (converted); for β2 Intrinsic Activity: fraction relative to the maximum activity determined for formoterol
T1 construct: Adherent H292 cells are removed from tissue culture flasks by treatment with Accutase™ cell detachment solution; endogenous in cells; host or cells: H292 cells
In short: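 Intracellular cAMP in lysates read by AlphaScreen, calibrated with cAMP standards; curves fitted for pEC50, with intrinsic activity as a fraction of formoterol's maximum. Agonist exposure 60 min at room temperature after 10 min rolipram (300 μM final), 1% DMSO, HEPES-buffered HBSS pH 7.4.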

[1] = target: T2, human muscarinic acetylcholine M3 receptor (Homo sapiens, UniProt P20309); assay: Muscarinic 3 receptor binding assay ([3H]NMS competition, SPA), pIC50; conditions: [3H]NMS 0.1 nM, CHO-K1 cell membranes expressing human M3 receptor
T2 construct: expressed in transfected cells; host or cells: CHO-K1 (Chinese Hamster Ovary) cell membranes
In short: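 SPA beads precoated with human M3-expressing CHO-K1 membranes were incubated 16 h at room temperature with serially diluted compound and 0.1 nM [3H]NMS (pH 7.4 HEPES buffer, MgCl2, BSA, 1% DMSO). Atropine (1 μM) defined non-specific binding; pIC50 is the 50% reduction in specific binding.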

T2 sequence (P20309 whole entry): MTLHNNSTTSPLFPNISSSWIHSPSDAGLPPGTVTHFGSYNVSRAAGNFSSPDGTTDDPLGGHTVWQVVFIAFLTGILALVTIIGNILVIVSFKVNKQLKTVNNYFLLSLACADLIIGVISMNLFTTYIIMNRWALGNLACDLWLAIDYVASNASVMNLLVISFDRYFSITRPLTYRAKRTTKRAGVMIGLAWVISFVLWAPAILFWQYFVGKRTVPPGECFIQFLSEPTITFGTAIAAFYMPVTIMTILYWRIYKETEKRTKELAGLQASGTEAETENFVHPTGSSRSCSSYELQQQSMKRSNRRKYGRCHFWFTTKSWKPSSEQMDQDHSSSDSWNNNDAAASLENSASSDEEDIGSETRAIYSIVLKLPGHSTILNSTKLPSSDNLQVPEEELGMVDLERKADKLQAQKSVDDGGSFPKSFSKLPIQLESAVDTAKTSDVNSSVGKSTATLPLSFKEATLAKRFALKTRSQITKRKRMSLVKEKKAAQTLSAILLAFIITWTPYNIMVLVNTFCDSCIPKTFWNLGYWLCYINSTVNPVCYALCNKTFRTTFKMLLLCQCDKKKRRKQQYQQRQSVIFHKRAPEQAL
T1 sequence (P07550 whole entry): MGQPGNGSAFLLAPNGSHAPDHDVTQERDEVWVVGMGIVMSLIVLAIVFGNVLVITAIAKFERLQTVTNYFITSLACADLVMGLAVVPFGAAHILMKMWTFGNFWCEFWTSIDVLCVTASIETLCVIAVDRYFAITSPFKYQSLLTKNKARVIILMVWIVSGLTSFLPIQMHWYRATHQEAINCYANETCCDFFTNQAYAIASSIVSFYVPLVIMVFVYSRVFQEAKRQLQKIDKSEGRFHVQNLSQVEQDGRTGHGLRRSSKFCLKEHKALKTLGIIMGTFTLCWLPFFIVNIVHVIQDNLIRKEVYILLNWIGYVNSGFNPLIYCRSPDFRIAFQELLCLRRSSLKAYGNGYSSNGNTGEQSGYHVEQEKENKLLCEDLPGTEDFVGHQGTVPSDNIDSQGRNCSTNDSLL

EC50 (Adrenergic β2) [nM] | β2 Intrinsic Activity (Adrenergic β2) | IC50 [1] [nM] | SMILES
31.6 | 0.8 | 0.251 | CC(C)c1nc(C(=O)N2CCOC3(CCN(Cc4cccc(COCCOCCC(=O)N(CCNCCc5ccc(O)c6c5OCC(=O)N6)C5CCCCC5)c4)CC3)C2)cs1 [Example 67, N-Cyclohexyl-N-(2-(2-(5-hydroxy-3-oxo-3,4-dihydro-2H-benzo[b][1,4]oxazin-8-yl)ethylamino)ethyl)-3-(2-(3-((4-(2-isopropylthiazole-4-carbonyl)-1-oxa-4,9-diazaspiro[5.5]undecan-9-yl)methyl)benzyloxy)ethoxy)propanamide ditrifluoroacetate]
10 | 0.6 | 10 | CCN(CCNCCc1ccc(O)c2[nH]c(=O)sc12)C(=O)CCOCCc1cccc(CN2CCC3(CC2)CN(C(=O)c2csc(C(C)C)n2)CCO3)c1OC [Example 68, N-Ethyl-N-(2-(2-(4-hydroxy-2-oxo-2,3-dihydrobenzo[d]thiazol-7-yl)ethylamino)ethyl)-3-(3-((4-(2-isopropylthiazole-4-carbonyl)-1-oxa-4,9-diazaspiro[5.5]undecan-9-yl)methyl)-2-methoxyphenethoxy)propanamide ditrifluoroacetate]
31.6 | 0.8 | 0.251 | CCN(CCNCCc1ccc(O)c2c1OCC(=O)N2)C(=O)CCOCCc1cccc(CN2CCC3(CC2)CN(C(=O)c2csc(CC(C)C)n2)CCO3)c1F [Example 69, N-Ethyl-3-(2-fluoro-3-((4-(2-isobutylthiazole-4-carbonyl)-1-oxa-4,9-diazaspiro[5.5]undecan-9-yl)methyl)phenethoxy)-N-(2-(2-(5-hydroxy-3-oxo-3,4-dihydro-2H-benzo[b][1,4]oxazin-8-yl)ethylamino)ethyl)propanamide ditrifluoroacetate]
50.1 | 1.0 | 0.126 | COCCN(CCNCCc1ccc(O)c2c1OCC(=O)N2)C(=O)CCOCCc1cccc(CN2CCC3(CC2)CN(C(=O)c2csc(C(C)C)n2)CCO3)c1Cl [Example 70, 3-(2-Chloro-3-((4-(2-isopropylthiazole-4-carbonyl)-1-oxa-4,9-diazaspiro[5.5]undecan-9-yl)methyl)phenethoxy)-N-(2-(2-(5-hydroxy-3-oxo-3,4-dihydro-2H-benzo[b][1,4]oxazin-8-yl)ethylamino)ethyl)-N-(2-methoxyethyl)propanamide ditrifluoroacetate]
50.1 | 1.0 | 0.251 | COCCCN(CCNCCc1ccc(O)c2c1OCC(=O)N2)C(=O)CCOCCc1cccc(CN2CCC3(CC2)CN(C(=O)c2csc(C(C)C)n2)CCO3)c1Cl [Example 71, 3-(2-Chloro-3-((4-(2-isopropylthiazole-4-carbonyl)-1-oxa-4,9-diazaspiro[5.5]undecan-9-yl)methyl)phenethoxy)-N-(2-(2-(5-hydroxy-3-oxo-3,4-dihydro-2H-benzo[b][1,4]oxazin-8-yl)ethylamino)ethyl)-N-(3-methoxypropyl)propanamide ditrifluoroacetate]
31.6 | 0.9 | 0.126 | CC(C)c1nc(C(=O)N2CCOC3(CCN(Cc4cccc(CCOCCC(=O)N(CCF)CCNCCc5ccc(O)c6c5OCC(=O)N6)c4F)CC3)C2)cs1 [Example 72, 3-(2-Fluoro-3-((4-(2-isopropylthiazole-4-carbonyl)-1-oxa-4,9-diazaspiro[5.5]undecan-9-yl)methyl)phenethoxy)-N-(2-fluoroethyl)-N-(2-(2-(5-hydroxy-3-oxo-3,4-dihydro-2H-benzo[b][1,4]oxazin-8-yl)ethylamino)ethyl)propanamide ditrifluoroacetate]
25.1 | 1.1 | 0.1 | CC(C)c1nc(C(=O)N2CCOC3(CCN(Cc4cccc(CCOCCC(=O)N(CCNCCc5ccc(O)c6c5OCC(=O)N6)CC(F)F)c4F)CC3)C2)cs1 [Example 73, N-(2,2-Difluoroethyl)-3-(2-fluoro-3-((4-(2-isopropylthiazole-4-carbonyl)-1-oxa-4,9-diazaspiro[5.5]undecan-9-yl)methyl)phenethoxy)-N-(2-(2-(5-hydroxy-3-oxo-3,4-dihydro-2H-benzo[b][1,4]oxazin-8-yl)ethylamino)ethyl)propanamide ditrifluoroacetate]
100 | 0.7 | 0.2 | CCN(CCNCCc1ccc(O)c2c1OCC(=O)N2)C(=O)CCOCCc1cccc(CN2CCC3(CC2)CN(C(=O)c2csc(C(C)C)c2)CCO3)c1F [Example 74, N-Ethyl-3-(2-fluoro-3-((4-(5-isopropylthiophene-3-carbonyl)-1-oxa-4,9-diazaspiro[5.5]undecan-9-yl)methyl)phenethoxy)-N-(2-(2-(5-hydroxy-3-oxo-3,4-dihydro-2H-benzo[b][1,4]oxazin-8-yl)ethylamino)ethyl)propanamide ditrifluoroacetate]
50.1 | 0.9 | 0.501 | CCc1nc(C(=O)N2CCOC3(CCN(CCc4ccc(CCOCCC(=O)N(CCCCCO)CCNCCc5ccc(O)c6[nH]c(=O)sc56)cc4)CC3)C2)cs1 [Example 75, 3-(4-(2-(4-(2-Ethylthiazole-4-carbonyl)-1-oxa-4,9-diazaspiro[5.5]undecan-9-yl)ethyl)phenethoxy)-N-(2-(2-(4-hydroxy-2-oxo-2,3-dihydrobenzo[d]thiazol-7-yl)ethylamino)ethyl)-N-(5-hydroxypentyl)propanamide diformate]
50.1 | 1.0 | 0.631 | CCc1nc(C(=O)N2CCOC3(CCN(CCc4ccc(CCOCCC(=O)N(CCCCCCO)CCNCCc5ccc(O)c6[nH]c(=O)sc56)cc4)CC3)C2)cs1 [Example 76, 3-(4-(2-(4-(2-Ethylthiazole-4-carbonyl)-1-oxa-4,9-diazaspiro[5.5]undecan-9-yl)ethyl)phenethoxy)-N-(2-(2-(4-hydroxy-2-oxo-2,3-dihydrobenzo[d]thiazol-7-yl)ethylamino)ethyl)-N-(6-hydroxyhexyl)propanamide diformate]
12.6 | 0.8 | 3.98 | CCCCc1nc(C(=O)N2CCOC3(CCN(Cc4cccc(CCOCCC(=O)N(CC)CCNCCc5ccc(O)c6c5OCC(=O)N6)c4Cl)CC3)C2)cs1 [Example 77, 3-(3-((4-(2-Butylthiazole-4-carbonyl)-1-oxa-4,9-diazaspiro[5.5]undecan-9-yl)methyl)-2-chlorophenethoxy)-N-ethyl-N-(2-(2-(5-hydroxy-3-oxo-3,4-dihydro-2H-benzo[b][1,4]oxazin-8-yl)ethylamino)ethyl)propanamide ditrifluoroacetate]
12.6 | 1.0 | 2.51 | CCN(CCNCCc1ccc(O)c2[nH]c(=O)sc12)C(=O)CCOCCc1cc(CCN2CCC3(CC2)CN(C(=O)c2csc(C(C)C)n2)CCO3)cs1 [Example 78, N-Ethyl-N-(2-(2-(4-hydroxy-2-oxo-2,3-dihydrobenzo[d]thiazol-7-yl)ethylamino)ethyl)-3-(2-(4-(2-(4-(2-isopropylthiazole-4-carbonyl)-1-oxa-4,9-diazaspiro[5.5]undecan-9-yl)ethyl)thiophen-2-yl)ethoxy)propanamide ditrifluoroacetate]
126 | 1.0 | 0.126 | CC(C)c1nc(C(=O)N2CCOC3(CCN(Cc4cccc(CCOCCC(=O)N(CCNCCc5ccc(O)c6c5OCC(=O)N6)CC(F)(F)F)c4F)CC3)C2)cs1 [Example 79, ditrifluoroacetate]
63.1 | 0.5 | 0.631 | CCCCN(CCCNCCc1ccc(O)c2c1OCC(=O)N2)C(=O)CCOCCc1cccc(CN2CCC3(CC2)CN(C(=O)c2csc(CC)n2)CCO3)c1Cl [Example 80]
251 | 0.9 | 3.98 | O=C1COc2c(CCNCCN(C(=O)CCOCCc3cccc(CN4CCC5(CC4)CN(C(=O)c4cc6ccccc6s4)CCO5)c3)C3CCCCC3)ccc(O)c2N1 [Example 81, 3-(3-((4-(Benzo[b]thiophene-2-carbonyl)-1-oxa-4,9-diazaspiro[5.5]undecan-9-yl)methyl)phenethoxy)-N-cyclohexyl-N-(2-(2-(5-hydroxy-3-oxo-3,4-dihydro-2H-benzo[b][1,4]oxazin-8-yl)ethylamino)ethyl)propanamide]
501 | 1.0 | 1.26 | O=C1COc2c(CCNCCN(C(=O)CCOCCc3cccc(CN4CCC5(CC4)CN(C(=O)c4csc(-c6ccccc6)n4)CCO5)c3)C3CCCCC3)ccc(O)c2N1 [Example 82, N-Cyclohexyl-N-(2-(2-(5-hydroxy-3-oxo-3,4-dihydro-2H-benzo[b][1,4]oxazin-8-yl)ethylamino)ethyl)-3-(3-((4-(2-phenylthiazole-4-carbonyl)-1-oxa-4,9-diazaspiro[5.5]undecan-9-yl)methyl)phenethoxy)propanamide]
251 | 1.1 | 0.316 | CCc1ccc(C(=O)N2CCOC3(CCN(Cc4cccc(CCOCCC(=O)N(CCNCCc5ccc(O)c6c5OCC(=O)N6)C5CCCCC5)c4)CC3)C2)s1 [Example 83, N-Cyclohexyl-3-(3-((4-(5-ethylthiophene-2-carbonyl)-1-oxa-4,9-diazaspiro[5.5]undecan-9-yl)methyl)phenethoxy)-N-(2-(2-(5-hydroxy-3-oxo-3,4-dihydro-2H-benzo[b][1,4]oxazin-8-yl)ethylamino)ethyl)propanamide]
